In PMC4997316, “A ruthenium polypyridyl intercalator stalls DNA replication forks, radiosensitizes human cancer cells and is enhanced by Chk1 inhibition” (Scientific Reports, 2016):

What was measured:
HeLa cells = assay: irradiation and clonogenic survival assay; assay type: cell-based, human; settings: for DEF (dose enhancement factor): LD10 [without complex]/LD10 [with complex]; for Radiosensitivity (AUC): area under the survival curve, DMSO 3.83; for LD10: from regression of survival curves, DMSO 6.7; for radiation enhancement ratio (RER): radiosensitivity [without complex]/radiosensitivity [with complex]
Protocol: Chemotherapeutics are often used in combination with external beam ionising radiation in the treatment of cancers and many drugs that inhibit DNA replication are potent radiosensitizers. To examine the possibility that 1 may function as a radiosensitizer, HeLa cells were pre-treated with 1 for 20 h before irradiation (0–6 Gy ionising irradiation (IR); ^137Cs-γ-rays; dose rate = 0.809 Gy min^−1). After further incubation for 4 h with the complex, the relative impact on cell viability was assessed by clonogenic survival. Complex 2, which achieves its impact on cell proliferation through non-DNA damage-based autophagy, was included in parallel for comparison. […] The formation of γH2AX is an early response to IR-induced DSB generation and may provide an indication of DNA damage levels. […] These findings indicate increased levels of DNA damage at an early time point accompany the enhanced radiation-induced cell killing in HeLa cells radiosensitised by 1.
HeLa cells were pre-treated with DMSO, 1 or 2 for 20 h and irradiated using a ^137Cs γ-irradiator (IBL637, CIS Bio Int.; dose rate = 0.809 Gy min^−1). Solutions were removed 4 h after irradiation; cells detached using Trypsin and re-seeded in 6 well plates at a density of 1000 cells/well (in triplicate). Cells were incubated for 7–10 days after re-seeding to allow colony formation before being fixed with 10% methanol, 10% acetic acid and stained with 0.4% methylene blue. Colonies containing 50 cells or greater were counted using a Gelcount instrument and accompanying software (Oxford Optronix). Plating efficiencies were determined for each treatment condition and normalised to controls to provide the survival fraction. Resultant survival fraction (S.F.) versus radiation dose curves were fitted using a second order polynomial function (R^2 values > 0.99). […]
Table S2. Radiosensitization data for 1 and 2 in HeLa cells.
LD10 (Gy) DEF Radiosensitivity RER
Survival variables LD10 (10 % lethal dose) and radiosensitivity, which is expressed as the area under
the survival curve (AUC), derived from linear regression analyses of survival curves (R 2 values ≥
0.989 for all fits). Dose enhancement factor (DEF) = LD 10 [without complex]/LD10 [with complex].
Radiation enhancement ratio (RER) = radiosensitivity [without complex]/radiosensitivity [with

[1] = test system: replication forks in HeLa cells; assay: DNA fibre assay (replication fork progression); assay type: cell-based, human; settings: for median IdU tract length: 40 μM added during 30 min IdU pulse, mock 6.10 μm
Protocol: Replication tracks were sequentially pulse-labelled with CldU (red) and IdU (green) and the addition of 1 or 2 during the second (IdU) pulse enabled us to evaluate the immediate effect of each complex on individual replication fork progression in S phase cells (Figs 3a and S12).
DNA fibre assays and immunofluorescent staining were performed as described elsewhere, employing sequential CldU and IdU incubation times of 30 mins each. The second nucleotide (IdU) was incubated in the presence of 1, 2 (40 μM) or a DMSO (0.5%) control. Fibres were visualised with a Leica DMRB microscope with a DFC360FX camera. Lengths of CldU- and IdU-labeled tracts were measured by ImageJ software. Statistical analysis was performed using GraphPad Prism software using unpaired t-test.

[2] = octanol/water partition coefficient (Log P)
[3] = test system: cleaved caspase-3 and LC3-II in HeLa cells; assay: Western blotting for cell death markers (cleaved caspase 3, LC3-II); assay type: cell-based, human; settings: 24 h, concentrations centred on IC50
Protocol: Figure 2 Complexes 1 and 2 are internalised by cancer cells and impact proliferation. (a) Effect of 40 μM 1 or 2 (0–72 h incubation time) on numbers of viable (left) and non-viable (right, data expressed as % total cells, independent of viability) HeLa cells (in triplicate, +/− SD). […] (c) Intracellular Ru levels of HeLa cells treated with 1 or 2 (40 μM, 24 h), as determined by ICP-MS. (d) Ru levels within isolated subcellular fractions of HeLa cells treated with 1 or 2 (40 μM, 24 h). Fractions: C = cytoplasm and cytoskeleton, M = membrane, N = nucleus. Successful fractionation confirmed by immunoblotting (right). All ICP-MS data were normalised to protein content of the corresponding fraction and are the mean of two independent experiments +/− SEM. (e) Epifluorescence microscopy of HeLa cells treated with 1 or 2 (40 μM, 24 h) showing intracellular MLCT emission. Co-staining with nuclear stain DAPI included. Scale bars = 20 μm.
Cells were incubated as stated, washed with cold PBS and lysed in RIPA (radioimmunoprecipitation assay) buffer containing protease inhibitors (10 μg/ml leupeptin, 2 μg/ml pepstatin, 50 μg/ml antipain, 2 μg/ml aprotinin, 20 μg/ml chyprostatin, 2 μg/ml benzamidine, 1 mM phenylmethanesulfonyl fluoride) and phosphatase inhibitors (50 mM NaF, 1 mM Na3VO4 and 20 mM β-glycerophosphate). Aliquots of cell lysates (5–20 μg total protein) were resolved by NuPAGE® 4–12% Bis-Tris gels and LDS-PAGE, transferred onto nitrocellulose membrane and probed with primary antibodies in 5% BSA (bovine serum albumin) solutions. Reactions were visualised with a suitable secondary antibody conjugated with horseradish peroxidase (Thermo). Pierce ECL (Thermo) or WesternSurePREMIUM (Li-Cor) chemiluminescent substrates with X-ray development (Fuji medical film and Optimax 2010 processor) or digital analysis (LiCor C-Digit Blot Scanner) were used to visualise protein expression. Li-Cor Image Studio Lite software was used for densitometry data acquisition.

SMILES	DEF (dose enhancement factor) (HeLa cells; 40 μM)	Radiosensitivity (AUC) (HeLa cells; 40 μM)	LD10 (HeLa cells; 40 μM)	radiation enhancement ratio (RER) (HeLa cells; 40 μM)	median IdU tract length [1]	impact on replication fork progression ([1]; 40 μM during IdU pulse)	Log P [2]	generation of apoptosis marker cleaved caspase-3 [3]	levels of autophagy marker LC3-II [3]	decrease in cell survival versus 6 Gy γ-rays alone (HeLa cells; 40 μM plus 6 Gy)	survival fraction (S.F.) with 6 Gy γ-rays (HeLa cells; 40 μM, 20 h before and 4 h after irradiation, 6 Gy alone 21.1 +/− 2%)	survival fraction (S.F.) in the absence of radiation (HeLa cells; 40 μM, 24 h)	stalled replication forks (red tract only), of total replication forks ([1]; 40 μM during IdU pulse, mock 7.5 +/− 1%)
Oc1ccc(-c2nc3c4cccnc4c4ncccc4c3[nH]2)cc1.[Ru+2].c1ccc2nc3c4cccnc4c4ncccc4c3nc2c1.c1ccc2nc3c4cccnc4c4ncccc4c3nc2c1 [Complex 2, [Ru(dppz)2(p-HPIP)]^2+]	1.14	3.39	5.9 Gy	1.13	6.24 μm	negligible impact on replication fork progression	0.076	no generation of the apoptosis marker cleaved caspase-3	greater in cells treated with 2 at IC50 concentrations or greater compared to untreated	–	–	–	–
[Ru+2].c1ccc(-c2nc3c4cccnc4c4ncccc4c3[nH]2)cc1.c1ccc2nc3c4cccnc4c4ncccc4c3nc2c1.c1ccc2nc3c4cccnc4c4ncccc4c3nc2c1 [Complex 1, [Ru(dppz)2(PIP)]^2+]	1.49	2.59	4.5 Gy	1.48	2.18 μm	–	0.403	no generation of the apoptosis marker cleaved caspase-3	no detectable increase	6.8 fold	3.1 +/− 1%	~ 85%	17 +/− 1%
